This note sets out measurements from patent US9006454B2, “Dihydroorotate dehydrogenase inhibitors” (Merck Serono S.A., priority 2009, dated 2015).

Usually EC50 stands for the concentration at which the effect is half-maximal. Low values mean higher potency in that assay, high ones lower potency in that assay. By IC50 is commonly meant the concentration that gives 50% inhibition.

Each structure is given as a SMILES string.

For test [1], the system named is Jurkat cells. Description: Measurement of cell proliferation (Jurkat cell), XTT assay. The test is classed as cell-based. As to conditions: Homo sapiens, Jurkat; for EC50: 72 h, XTT cell viability; for inhibition at 1 µM: compound at 1 uM, read-out: % inh Jurkat_cells @ 1 uM (%). In outline: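 Jurkat T cells, 100,000 per well in RPMI with 10% FBS, exposed 72 h at 37 °C to serial compound dilutions (typically from 10 μM, half-log steps, triplicate) at 0.25–0.5% DMSO. Viability by XTT/PMS, A465 after 2 h, media background subtracted, untreated cells as 100%; EC50 from curve fit.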
Background: Tetrazolium dyes change colour on reduction, which living cells bring about.

Test [2] deals with DHODH (Homo sapiens (Human), UniProt Q02127). The test is described as follows: DHODH activity assay (coupled enzyme assay, DCIP reduction, absorbance at 610 nm). It is filed as biochemical. As to conditions: for inhibition at 10 µM: compound at 10 uM, read-out: inh @ 10 uM hDHODH (%).
Sequence of DHODH (Q02127 whole entry): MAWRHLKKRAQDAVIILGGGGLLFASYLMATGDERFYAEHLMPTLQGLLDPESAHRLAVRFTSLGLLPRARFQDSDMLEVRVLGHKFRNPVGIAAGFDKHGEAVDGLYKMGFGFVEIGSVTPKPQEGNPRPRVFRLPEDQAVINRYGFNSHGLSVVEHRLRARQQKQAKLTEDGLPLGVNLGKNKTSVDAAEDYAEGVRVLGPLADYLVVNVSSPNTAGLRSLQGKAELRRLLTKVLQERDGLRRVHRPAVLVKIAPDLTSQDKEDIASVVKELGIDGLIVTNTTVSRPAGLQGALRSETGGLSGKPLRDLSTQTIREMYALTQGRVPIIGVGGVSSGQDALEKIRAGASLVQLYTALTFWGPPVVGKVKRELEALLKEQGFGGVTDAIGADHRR

`COc1cc(-c2nc3c(C(=O)O)cccc3[nH]2)cc(OC)c1-c1ccccc1` [I20]: in test [1], it took 1000 nM to reach a half-maximal effect (EC50) and the inhibition at 1 µM is 67.1%. In test [2], it took 975 nM to reach half-maximal inhibition (IC50) and the inhibition at 10 µM amounted to 93.2%.
Consider `O=C(O)c1cccc2[nH]c(-c3ccc(Nc4ccccc4)cc3)nc12` [I55], for which the inhibition at 1 µM in test [1] amounted to 6.8%. In test [2], the half-maximal inhibitory concentration (IC50) was determined as 27100 nM and the inhibition at 10 µM was found to be 33.2%.
Taken in the same sequence, the figures for `Cc1cc(C(=O)O)c2nc(-c3ccc(-c4ccc(Oc5ccc(C=O)cc5)cc4)cc3)[nH]c2c1` [I135] were 21.8%, 1590 nM and 65.1%.
For `Cc1cc(C(=O)O)c2nc(-c3ccc(-c4ccc(C(=O)NC5CCNCC5)cc4)cc3)[nH]c2c1` [I92], in test [1], the inhibition at 1 µM amounted to 16.3%. In test [2], the IC50 came to 6640 nM and the inhibition at 10 µM is 59.7%.
Turning to `Cc1cc(C(=O)O)c2nc(-c3cc(-c4ccccc4)cs3)[nH]c2c1` [I49], in test [1], the inhibition at 1 µM is 11%. Also, the inhibition at 10 µM in test [2] worked out at 32.4%.
`O=C(O)c1cccc2[nH]c(-c3c(F)c(F)c(-c4ccsc4)c(F)c3F)nc12` [I144]: the inhibition at 1 µM in test [1] came out at 68.2%. Also, in test [2], the concentration for half-maximal inhibition (IC50) came out at 441 nM and the inhibition at 10 µM was found to be 89.8%.
Turning to `O=C(O)c1cccc2[nH]c(-c3ccc(-c4ccc(OCc5ccccc5)cc4)cc3)nc12` [I190], the inhibition at 1 µM in test [1] was 16.5%. For the same molecule, the inhibition at 10 µM in test [2] came to 47.5%.
`Cc1cc(C(=O)O)c2nc(-c3ccc(-c4ccc(NC(=O)[C@@H]5CCCN5)cc4)cc3)[nH]c2c1` [I89]: the inhibition at 1 µM in test [1] was found to be 52%. Further, the inhibition at 10 µM in test [2] was determined as 94.1%.
`Cc1cc(C(=O)O)c2nc(-c3c(F)c(F)c(-c4ccc(OCc5ccccc5)cc4)c(F)c3F)[nH]c2c1` [I127]: the inhibition at 1 µM in test [1] worked out at 96%. Further, in test [2], the half-maximal inhibitory concentration (IC50) turned out to be 48 nM and the inhibition at 10 µM is 101%.
As to `O=C(O)c1cc(F)cc2nc(-c3ccc(-c4ccc(F)cc4F)cc3F)[nH]c12` [I34], the inhibition at 1 µM in test [1] came to 41.8%. Also, in test [2], the inhibition at 10 µM came to 82%.
Consider `Cc1cc(C#N)c2nc(-c3c(F)c(F)c(-c4ccccc4)c(F)c3F)[nH]c2c1` [I109], for which the inhibition at 1 µM in test [1] was found to be 49%. Also, in test [2], the IC50 was found to be 1650 nM and the inhibition at 10 µM amounted to 87%.
With `CC(=O)c1cccc2[nH]c(-c3ccc(-c4ccccc4)cc3)nc12` [I69, 1-(2-Biphenyl-4-yl-1H-benzoimidazol-4-yl)-ethanone], the inhibition at 1 µM in test [1] was found to be 9.2%. In addition, the inhibition at 10 µM in test [2] was found to be 12.5%.
In the case of `O=C(O)c1cccc2[nH]c(-c3ccc(S(=O)(=O)c4ccccc4)cc3)nc12` [I54], the inhibition at 1 µM in test [1] worked out at 8%. In test [2], the inhibition at 10 µM was 26.6%.
For `Cc1cc(C(=O)O)c2nc(-c3ccc(-c4cccc(O)c4)cc3)[nH]c2c1` [I116], in test [1], the inhibition at 1 µM is 59%. In addition, in test [2], half-maximal inhibition (IC50) required 862 nM and the inhibition at 10 µM amounted to 78%.
Consider `Cc1cc(C(=O)O)c2nc(-c3ccc(-c4ccc(Oc5ccc(C#N)cc5)cc4)cc3)[nH]c2c1` [I178], for which, in test [1], the inhibition at 1 µM was determined as 37.6%. Besides, in test [2], the inhibition at 10 µM is 53.3%.
As for `Cc1cc(C(=O)O)c2nc(-c3c(F)c(F)c(-c4ccc(NC(=O)C5CCCN5)cc4)c(F)c3F)[nH]c2c1` (stereo not drawn) [I85], the inhibition at 1 µM in test [1] was 93.4%. Further, in test [2], the IC50 was 56 nM and the inhibition at 10 µM came out at 104%.
Consider `O=C(O)c1cccc2[nH]c(-c3ccc(-c4ccccc4O)cc3)nc12` [I168], for which, in test [1], the inhibition at 1 µM is 34%. For the same molecule, the inhibition at 10 µM in test [2] was 85%.
Taken in the same sequence, the figures for `Cc1cc(C(=O)O)c2nc(-c3ccc(-c4ccc(OCCCN5CCCC5)cc4)cc3)[nH]c2c1` [I152] were 23.8% and 47.2%.
Turning to `O=C(O)c1cccc2nc(-c3c(F)c(F)c(-c4cccc(OCc5ccccc5)c4)c(F)c3F)[nH]c12` [I107], the inhibition at 1 µM in test [1] was 99%. Further, in test [2], the IC50 is 26 nM and the inhibition at 10 µM worked out at 108%.
With `O=C(O)c1cccc2[nH]c(-c3ccc(-c4ccc(OCc5ccccn5)cc4)cc3)nc12` [I182], the inhibition at 1 µM in test [1] was found to be 26.9%. Besides, in test [2], the inhibition at 10 µM amounted to 57.7%.
In the case of `Cc1cc(C(=O)O)c2nc(-c3ccc(-c4ccc(OCCCN5CCCCC5)cc4)cc3)[nH]c2c1` [I88], the inhibition at 1 µM in test [1] is 40.3%. Further, in test [2], the IC50 was determined as 1630 nM and the inhibition at 10 µM was found to be 82.9%.
Turning to `O=Cc1ccc(Oc2ccc(-c3ccc(-c4nc5c(C(=O)O)cccc5[nH]4)cc3)cc2)cc1` [I180], the inhibition at 1 µM in test [1] was found to be 9.8%. Besides, in test [2], the inhibition at 10 µM was determined as 30.5%.
`O=C(O)c1cc(Br)cc2[nH]c(-c3ccc(-c4ccccc4)cc3)nc12` [I6]: the EC50 in test [1] was found to be 388 nM. For the same molecule, in test [2], it took 574 nM to reach half-maximal inhibition (IC50) and the inhibition at 10 µM is 96.7%.
In the case of `Cc1cc(C(=O)O)c2nc(-c3ccc(-c4nc5ccccc5s4)cc3)[nH]c2c1` [I47], the inhibition at 1 µM in test [1] stood at 17.3%. In addition, the inhibition at 10 µM in test [2] is 40.3%.
`Cc1cc(C(=O)O)c2[nH]c(-c3ccc(-c4ccc(O)c(O)c4)cc3)nc2c1` [I91]: in test [1], the inhibition at 1 µM was 62.3%. Also, in test [2], the half-maximal inhibitory concentration (IC50) was 645 nM and the inhibition at 10 µM was found to be 94.2%.
Take `Cc1cc(C(=O)O)c2nc(-c3ccc(-c4ccc(OCc5ccccc5)cc4)cc3)[nH]c2c1` [I143]: the inhibition at 1 µM in test [1] is 42.2%. In test [2], the midpoint of inhibition, the IC50, lay at 1230 nM and the inhibition at 10 µM is 87%.
Consider `Cc1cc(C(=O)O)c2nc(-c3c(F)c(F)c(-c4ccccc4)c(F)c3F)[nH]c2c1` [I41], for which, in test [1], a half-maximal response (EC50) required 18 nM and the inhibition at 1 µM stood at 103%. In addition, in test [2], the 50% inhibitory concentration (IC50) is 6.8 nM and the inhibition at 10 µM was found to be 103%.
For `Cc1cc(C(=O)O)c2nc(-c3ccc(-c4cccc(NC(=O)C5CCCN5)c4)cc3)[nH]c2c1` (stereo not drawn) [I150], the inhibition at 1 µM in test [1] amounted to 15.4%. Besides, in test [2], the inhibition at 10 µM worked out at 30.5%.
As for `O=C(O)c1cccc2nc(-c3ccc(-c4c(F)cccc4F)cc3)[nH]c12` [I65], in test [1], the inhibition at 1 µM turned out to be 43%. In test [2], the half-maximal inhibitory concentration (IC50) came to 1840 nM and the inhibition at 10 µM amounted to 82%.
With `Cc1cc(C(=O)NC2CCCC2)c2[nH]c(-c3c(F)c(F)c(-c4ccccc4)c(F)c3F)nc2c1` [I158], in test [1], the inhibition at 1 µM worked out at 6.5%. In addition, in test [2], the inhibition at 10 µM amounted to 48.5%.
As to `Cc1cc(C(=O)O)c2nc(-c3ccc(Oc4ccccn4)cc3)[nH]c2c1` [I71, 6-Methyl-2-[4-(pyridin-2-yloxy)-phenyl]-1H-benzoimidazole-4-carboxylic acid], the inhibition at 1 µM in test [1] came to 28.3%. Further, in test [2], the half-inhibitory concentration (IC50) amounted to 4380 nM and the inhibition at 10 µM was found to be 75.5%.
As to `O=C(O)c1cc(Cl)cc2[nH]c(-c3ccc(-c4ccccc4F)cc3)nc12` [I45], the inhibition at 1 µM in test [1] is 49.5%. Further, in test [2], the IC50 was 949 nM and the inhibition at 10 µM was determined as 92.2%.
Taken in the same sequence, the figures for `Cc1cc(C(=O)O)c2[nH]c(-c3ccc(-c4ccccc4)nc3)nc2c1` [I75, 6-Methyl-2-(6-phenyl-pyridin-3-yl)-3H-benzoimidazole-4-carboxylic acid] were 39.3%, 3820 nM and 82.4%.
As to `O=C(O)c1cccc2nc(-c3cccc4ccccc34)[nH]c12` [I39], the inhibition at 1 µM in test [1] turned out to be 12.3%. In addition, the inhibition at 10 µM in test [2] amounted to 19.9%.
As to `Cc1cc(C(=O)O)c2nc(-c3c(F)c(F)c(-c4ccc(F)cc4)c(F)c3F)[nH]c2c1` [I134], the inhibition at 1 µM in test [1] was found to be 77.9%. In test [2], the IC50 is 118 nM and the inhibition at 10 µM is 88.1%.
In the case of `O=C(O)c1cc(F)cc2[nH]c(-c3ccc(-c4cccnc4)cc3)nc12` [I58], the inhibition at 1 µM in test [1] was 69.8%. For the same molecule, in test [2], the IC50 was found to be 437 nM and the inhibition at 10 µM is 99.7%.
With `Cc1cc(C(=O)NC2CC2)c2[nH]c(-c3c(F)c(F)c(-c4ccccc4)c(F)c3F)nc2c1` [I163], the inhibition at 1 µM in test [1] came to 37.7%. Besides, the inhibition at 10 µM in test [2] was determined as 75.6%.
Taken in the same sequence, the figures for `Cc1cc(C(=O)O)c2[nH]c(-c3ccc(-c4ccc(CN(C)C)cc4)cc3)nc2c1` [I161] were 9.7% and 43.3%.
Taken in the same sequence, the figures for `Cc1ccc(C)n1-c1ccc(-c2nc3cccc(C(=O)O)c3[nH]2)cc1` [I185] were 21.5% and 59.4%.
As to `O=C(O)c1cccn2cc(-c3ccc(-c4ccccc4)cc3)nc12` [I138], the inhibition at 1 µM in test [1] is 44.8%. Besides, in test [2], it took 3800 nM to reach half-maximal inhibition (IC50) and the inhibition at 10 µM came to 76.1%.
Taken in the same sequence, the figures for `O=C(O)c1cccc2[nH]c(-c3c(F)c(F)c(-c4ccc(F)cc4)c(F)c3F)nc12` [I133] were 54.7%, 808 nM and 101%.
As for `N#Cc1ccc(Oc2ccc(-c3nc4cccc(C(=O)O)c4[nH]3)cc2)cc1` [I77, 2-[4-(4-Cyano-phenoxy)-phenyl]-3H-benzoimidazole-4-carboxylic acid], the inhibition at 1 µM in test [1] came out at 11.5%. Moreover, in test [2], the inhibition at 10 µM was 34.6%.
Regarding `Cc1cc(C(=O)O)c2[nH]c(-c3c(F)c(F)c(-c4cccc(OCc5ccccc5)c4)c(F)c3F)nc2c1` [I105], the inhibition at 1 µM in test [1] stood at 91.9%. For the same molecule, in test [2], the IC50 came to 13.6 nM and the inhibition at 10 µM is 95.8%.
Taken in the same sequence, the figures for `O=C(O)c1cccc2[nH]c(-c3c(F)c(F)c(-c4cccnc4)c(F)c3F)nc12` [I136] were 68.4%, 282 nM and 89.5%.
For the molecule `Cc1cc(C(=O)O)c2[nH]c(-c3ccc(-c4c(F)cccc4F)cc3)nc2c1` [I76, 2-(2′,6′-Difluoro-biphenyl-4-yl)-6-methyl-3H-benzoimidazole-4-carboxylic acid], in test [1], the inhibition at 1 µM amounted to 83.5%. In test [2], 344 nM corresponded to half-maximal inhibition (IC50) and the inhibition at 10 µM came to 100%.
In the case of `Cc1cc(C(=O)O)c2nc(-c3ccc(-c4ccc(Oc5ccccn5)cc4)cc3)[nH]c2c1` [I171], the inhibition at 1 µM in test [1] is 35%. In test [2], the inhibition at 10 µM is 86%.
